What was measured:
[1] = biological target: Phosphatidylinositol 4,5-bisphosphate 3-kinase catalytic subunit alpha isoform (Homo sapiens, UniProt P42336); test: Inhibition of PI3Kalpha by luminescent kinase glo assay; details: for inhibition: concentration not given here
[2] = biological target: Phosphatidylinositol 4,5-bisphosphate 3-kinase catalytic subunit gamma isoform (Homo sapiens, UniProt P48736); test: Inhibition of PI3Kgamma by luminescent kinase glo assay
[3] = Selectivity ratio of IC50 for PI3Kgamma to IC50 for PI3Kalpha

Sequence of Phosphatidylinositol 4,5-bisphosphate 3-kinase catalytic subunit gamma isoform (P48736 whole entry, canonical isoform): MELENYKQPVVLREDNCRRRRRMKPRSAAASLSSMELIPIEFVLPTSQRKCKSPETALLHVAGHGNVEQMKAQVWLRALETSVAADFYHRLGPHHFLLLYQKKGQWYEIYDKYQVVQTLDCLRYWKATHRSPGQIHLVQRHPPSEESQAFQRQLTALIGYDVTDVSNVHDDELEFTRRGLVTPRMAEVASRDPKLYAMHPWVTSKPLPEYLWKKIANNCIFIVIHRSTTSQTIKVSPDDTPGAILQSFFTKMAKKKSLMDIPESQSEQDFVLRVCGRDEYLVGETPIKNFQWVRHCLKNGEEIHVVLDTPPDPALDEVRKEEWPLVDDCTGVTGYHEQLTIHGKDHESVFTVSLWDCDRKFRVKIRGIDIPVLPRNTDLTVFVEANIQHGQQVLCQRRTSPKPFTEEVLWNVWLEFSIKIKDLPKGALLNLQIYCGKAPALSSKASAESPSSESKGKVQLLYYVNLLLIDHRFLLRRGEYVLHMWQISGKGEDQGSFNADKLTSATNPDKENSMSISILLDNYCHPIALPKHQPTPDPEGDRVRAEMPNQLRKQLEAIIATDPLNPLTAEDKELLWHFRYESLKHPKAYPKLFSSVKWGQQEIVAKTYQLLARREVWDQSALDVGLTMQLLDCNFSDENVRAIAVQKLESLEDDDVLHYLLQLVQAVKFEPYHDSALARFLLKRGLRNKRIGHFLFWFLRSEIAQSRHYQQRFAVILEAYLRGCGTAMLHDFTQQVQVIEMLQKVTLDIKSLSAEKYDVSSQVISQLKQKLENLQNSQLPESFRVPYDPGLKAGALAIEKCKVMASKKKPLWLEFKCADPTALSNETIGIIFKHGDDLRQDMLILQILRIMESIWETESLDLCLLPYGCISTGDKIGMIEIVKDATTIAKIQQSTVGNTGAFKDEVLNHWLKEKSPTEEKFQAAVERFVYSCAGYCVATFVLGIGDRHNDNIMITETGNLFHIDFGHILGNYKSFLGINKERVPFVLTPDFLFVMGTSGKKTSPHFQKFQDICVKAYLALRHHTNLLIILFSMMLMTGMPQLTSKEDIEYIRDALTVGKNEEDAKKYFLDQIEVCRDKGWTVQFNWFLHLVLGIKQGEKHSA
Sequence of Phosphatidylinositol 4,5-bisphosphate 3-kinase catalytic subunit alpha isoform (P42336 whole entry, canonical isoform): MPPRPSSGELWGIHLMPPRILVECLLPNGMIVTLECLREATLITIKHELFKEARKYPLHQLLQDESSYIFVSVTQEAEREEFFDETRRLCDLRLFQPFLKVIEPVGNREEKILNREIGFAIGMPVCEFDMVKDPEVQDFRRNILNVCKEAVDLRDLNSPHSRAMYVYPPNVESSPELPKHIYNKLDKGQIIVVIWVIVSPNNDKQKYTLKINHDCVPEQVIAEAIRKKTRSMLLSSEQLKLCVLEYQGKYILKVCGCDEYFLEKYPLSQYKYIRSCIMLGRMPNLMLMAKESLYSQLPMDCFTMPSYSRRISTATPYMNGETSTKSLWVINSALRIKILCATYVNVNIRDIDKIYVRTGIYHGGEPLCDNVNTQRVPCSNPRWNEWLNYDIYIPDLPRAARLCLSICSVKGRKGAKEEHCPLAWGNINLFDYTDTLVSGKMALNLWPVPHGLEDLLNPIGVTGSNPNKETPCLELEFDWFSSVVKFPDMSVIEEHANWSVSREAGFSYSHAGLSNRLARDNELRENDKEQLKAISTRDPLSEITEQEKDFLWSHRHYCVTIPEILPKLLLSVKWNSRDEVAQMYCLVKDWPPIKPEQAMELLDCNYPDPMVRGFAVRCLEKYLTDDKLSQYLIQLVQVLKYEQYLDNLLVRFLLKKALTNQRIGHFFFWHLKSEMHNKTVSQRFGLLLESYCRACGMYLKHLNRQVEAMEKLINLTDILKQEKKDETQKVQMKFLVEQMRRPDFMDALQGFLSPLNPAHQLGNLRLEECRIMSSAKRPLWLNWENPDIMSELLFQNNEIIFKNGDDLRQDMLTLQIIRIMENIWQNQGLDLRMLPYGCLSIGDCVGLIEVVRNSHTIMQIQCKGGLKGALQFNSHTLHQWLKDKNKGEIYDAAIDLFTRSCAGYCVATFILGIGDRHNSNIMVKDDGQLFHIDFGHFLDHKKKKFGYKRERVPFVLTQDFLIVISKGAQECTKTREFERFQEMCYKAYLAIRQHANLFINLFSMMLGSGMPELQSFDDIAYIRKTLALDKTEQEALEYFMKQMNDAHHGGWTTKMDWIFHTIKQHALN

Row | IC50 [1] [µM] | IC50 [2] [µM] | inhibition [1] [%] | Ratio IC50 [3] | SMILES
1 | ≥ 50 | ≥ 50 | – | – | Cc1cc(F)ccc1OCc1cc(C(=O)NCCO)cc(N2CCOCC2)n1
2 | 100 | 100 | – | – | Cc1cc(F)ccc1NCc1cc(C=O)cc(N2CCOCC2)n1
3 | 100 | 42 | – | – | Cc1cc(F)ccc1NCc1cc(C(=O)O)cc(-c2cccc(O)c2)n1
4 | > 100 | > 100 | – | – | Cc1cc(F)ccc1NCc1cc(C(=O)O)cc(Cl)n1
5 | – | < 10 | < 10 | – | CCOC(=O)c1cc(CNc2ccc(F)cc2C)nc(N2CCOCC2)c1
6 | > 100 | > 100 | – | – | Cc1cc(F)ccc1NCc1cc(C(=O)NCCO)cc(NCCO)n1
7 | > 100 | > 100 | – | – | Cc1cc(F)ccc1NCc1cc(C(=O)O)cc(N2CCNCC2)n1
8 | – | > 100 | < 10 | – | Cc1cc(F)ccc1NCc1cc(C(=O)O)cc(N2CCCCC2)n1
9 | 51 | > 100 | – | – | CCOC(=O)c1ccnc(N2CCOCC2)c1
10 | 100 | 100 | – | – | Cc1cc(F)ccc1NCc1cc(C(=O)O)cc(-c2ccc(O)cc2)n1
11 | 20 | ≥ 100 | – | – | Cc1cc(F)ccc1NCc1cc(CO)cc(N2CCOCC2)n1
12 | > 100 | > 100 | – | – | Cc1cc(F)ccc1NCc1cc(C(=O)O)cc(N(C)CCO)n1
13 | > 100 | > 100 | – | – | Cc1cc(F)ccc1NCc1cc(C(=O)N2CCC(O)C2)cc(N2CCC(O)C2)n1 (stereo not drawn)
14 | > 100 | > 100 | – | – | Cc1cc(F)ccc1NCc1cc(C(=O)O)cc(N(CCO)CCO)n1
15 | 29 | 42 | – | – | Cc1cc(F)ccc1NCc1cc(C(=O)O)cc(-c2ccncc2)n1

Further lines, the molecule ahead of its results:

Row | SMILES | IC50 [1] [µM] | IC50 [2] [µM] | inhibition [1] [%] | Ratio IC50 [3]
16 | Cc1cc(F)ccc1OCc1cc(C(=O)NO)cc(N2CCOCC2)n1 | ≥ 10 | 10 | – | –
17 | Cc1cc(F)ccc1NCc1cc(C(=O)O)cc(N2CCOCC2)n1 | 5 | 34 | – | –
18 | O=C(O)c1ccnc(N2CCOCC2)c1 | 36 | > 100 | – | –
19 | CCOC(=O)c1cc(COc2ccc(F)cc2C)nc(N2CCOCC2)c1 | – | < 10 | < 10 | –
20 | Cc1cc(F)ccc1OCc1cc(C(N)=O)cc(N2CCOCC2)n1 | > 10 | < 10 | – | –
21 | Cc1cc(F)ccc1NCc1cc(C(=O)O)cc(N2CCCC2)n1 | – | > 100 | < 10 | –
22 | Cc1cc(F)ccc1NCc1cc(C(=O)O)cc(N2CCC(O)C2)n1 (stereo not drawn) | > 100 | > 100 | – | –
23 | Cc1cc(F)ccc1NCc1cc(C(=O)O)cc(NCCO)n1 | 100 | > 100 | – | –
24 | Cc1cc(F)ccc1NCc1cc(C(=O)O)cc(-c2ccccc2O)n1 | > 100 | > 100 | – | –
25 | Cc1cc(F)ccc1NCc1cc(C(=O)O)cc(-c2cccnc2)n1 | > 100 | > 100 | – | –
26 | Cc1cc(F)ccc1OCc1cc(C(=O)O)cc(N2CCOCC2)n1 | 7 | 23 | – | 6

Reference: ChEMBL document CHEMBL1153990, “Exploring the PI3K alpha and gamma binding sites with 2,6-disubstituted isonicotinic derivatives” (Bioorg Med Chem Lett, 2009)
